Measurements as given in patent publication US20240382489A1, “LIQUID PHARMACEUTICAL COMPOSITION” (Verona Pharma PLC, priority 2023, published 2024).

System: patients aged 40-80 years with moderate to severe COPD
Assay: Clinical study of nebulised ensifentrine vs placebo in COPD: lung function (FEV1)
Assay type: in vivo, human
Conditions: 3 mg BID by nebuliser
Description: A clinical study was conducted to determine the efficacy of ensifentrine in treating COPD compared with placebo. Ensifentrine was administered by nebuliser at a dose of 3 mg twice daily (BID) for 24 weeks. The study was a multi-centre, randomized, double-blind, parallel-group, placebo-controlled trial with around 800 patients and 5:3 randomization.
The study population included patients aged 40-80 years with moderate to severe COPD (FEV130%-70% p.n., FEV1/forced vital capacity (FVC) ratio<0.7, with mMRC≥2). The randomization stratified (a) the use of stable background maintenance LAMA or LABA therapy use (approx. 50%. yes or no) and (b) cigarette smoking (current or former). Inhaled corticosteroid (ICS) maintenance therapy was permitted in up to 20% of patients under certain provisions.
The primary endpoint of the study was change from baseline in average FEV1 area under the curve (AUC)0-12 h post-dose at week 12. Secondary endpoints of the study included: peak FEV1 over 4 hours post-dose at Week 12; morning trough FEV1 at Week 12; and other endpoints including moderate/severe COPD exacerbations frequency over 24 Weeks.
Baseline FEV1 is the mean of the two measurements taken before study medication on the day of first dosing, i.e., ≤40 minutes and just prior to dosing, both pre-dose on day 1. […]

**Q.** Which “improvement in lung function in all subgroups of COPD patients” value does the source give for `COc1cc2c(cc1OC)-c1c/c(=N\c3c(C)cc(C)cc3C)n(CCNC(N)=O)c(=O)n1CC2` [Ensifentrine, N-(2-{(2E)-9,10-dimethoxy-4-oxo-2-[(2,4,6-trimethylphenyl)imino]-6,7-dihydro-2H-pyrimido[6,1-a]isoquinolin-3(4H)-yl}ethyl)urea] here?
**A.** statistically significant improvement in lung function
